According to patent publication US9771430B2, “Method of treating a metabolic disorder induced by obesity in a subject in need thereof by administering MK2/3 inhibitors” (THE TRUSTEES OF COLUMBIA UNIVERSITY IN THE CITY OF NEW YORK, priority 2011, dated 2017):
Entries after “also recorded” stand apart in the source; their conditions may differ.

Tests used:
CaMKII = CaMKII enzyme activity assay in primary mouse hepatocytes; format: cell-based; conditions: HCs, 100 nM glucagon, various times
Procedure: FIGS. 1A-J. Glucagon and fasting activates hepatic CaMKII. FIG. 1A. CaMKII enzyme activity was assayed in triplicate wells of primary mouse HCs stimulated with 100 nM glucagon (Gluc) or vehicle control (Veh) for the indicated times (*P<0.05 and **P<0.01 vs. Veh; mean±S.E.M.). FIGS. 1B-1J. Extracts of HCs or liver were probed for phospho-CaMKII, total CaMKII, and β-actin by immunoblot assay. FIG. 1B. HCs were incubated with […] glucagon for the indicated times; FIG. 1C. Glucagon was added to HCs that were pre-treated for 1 h with vehicle control (Veh) or 5 μM BAPTA-AM; FIG. 1D. […]
CaMKII activity was assayed using a CaMKII assay kit from Promega according to the manufacturer's instructions. […] Next, [γ-32P]ATP and CaMKII biotinylated peptide substrate were added to the lysate and after incubation for 10 minutes at 30° C., the [32P]-phosphorylated substrate was separated from the residual [32P]ATP using SAM biotin capture membrane and quantitated using a scintillation counter.
CaMKII activity was assayed using a CaMKII assay kit from Promega according to the manufacturer's instructions. […] After incubation for 10 min at 30° C., the [^32P]-phosphorylated substrate was separated from the residual [^32P]ATP using SAM biotin-capture membrane and then quantitated using a scintillation counter. […]

[1] = system: IP3-mediated Ca2+ release; conditions: cited from earlier work

Row | Compound | CaMKII activity (CaMKII) | selectivity over the skeletal isoform of the ryanodine receptor type 1 (RyR-1) [1] | IC50 ([1]; read-out: IC50, blocker of IP3-mediated Ca2+ release) [nM]
1 | glucagon: hormone used to stimulate hepatocytes and mice | increased steadily as a function of time; also recorded: increases as a function of time |  | 
2 | C1CCC[C@H]2CCCN3CC[C@@H](CCCCCC[C@@H]4CCCN5CC[C@@H](CC1)O[C@@H]45)O[C@@H]23 [Xestospongin C] |  | high selectivity | 358
